Source: ChEMBL document CHEMBL3045991, “Synthesis of new 2(1H)-quinoxalinone derivatives for antimicrobial and antiinflammatory evaluation” (Med Chem Res, 2009)

Each compound was assayed on Escherichia coli (assay: Antibacterial activity against Escherichia coli at 10 mg/ml by cup-plate technique). Details: read-out: DIZ.
Assay type: functional

In order of falling zone of inhibition at 10000 µg/mL:
1. O=C(CC1=NC2CCCCC2NC1=O)NNC(=S)Nc1ccccc1 (stereo not drawn)  12 mm
2. O=C(O)c1cn(C2CC2)c2cc(N3CCNCC3)c(F)cc2c1=O [CIPROFLOXACIN]  12 mm
3. C=CCNC(=S)NNC(=O)CC1=NC2CCCCC2NC1=O (stereo not drawn)  9 mm
4. O=C(Cc1nc2ccccc2[nH]c1=O)NNC(=S)Nc1ccccc1  8 mm
5. O=C1NC2CCCCC2N=C1/C=N/Nc1ccc(Br)cc1 (stereo not drawn)  8 mm
6. O=C1NC2CCCCC2N=C1/C=N/Nc1ccc(F)cc1 (stereo not drawn)  7 mm
7. C=CCNC(=S)NNC(=O)Cc1nc2ccccc2[nH]c1=O  7 mm
8. O=C1NC2CCCCC2N=C1/C=N/Nc1ccc(Cl)cc1 (stereo not drawn)  6 mm
9. O=C(CC1=NC2CCCCC2NC1=O)NN1C(=O)c2ccccc2C1=O (stereo not drawn)  6 mm
10. Cc1ccc(N/N=C/C2=NC3CCCCC3NC2=O)cc1 (stereo not drawn)  5 mm
11. O=C1NC2CCCCC2N=C1/C=N/Nc1ccccc1 (stereo not drawn)  4 mm

The compounds below were run on Rattus norvegicus (assay: Anti-inflammatory activity in Rattus norvegicus albino (rat) assessed as reduction of carrageenan-induced paw edema thickness at 0.9 mg/100 g body weight, ip administered 1 hr before carrageenan-challenge measured after 3 hr (reference value: 0.88 +/- 0.03 mm)). Details: not given.
Assay type: functional

In order of rising Activity:
1. Cc1ccc(-c2cc(C(F)(F)F)nn2-c2ccc(S(N)(=O)=O)cc2)cc1 [CELECOXIB]  0.45 mm
2. O=C(Cc1nc2ccccc2[nH]c1=O)Nn1c(-c2ccc(Cl)cc2)csc1=S  0.47 mm
3. O=c1[nH]c2ccccc2nc1Cc1nnc(S)n1-c1ccccc1  0.52 mm
4. CCn1c(S)nnc1Cc1nc2ccccc2[nH]c1=O  0.52 mm
5. O=C(Cc1nc2ccccc2[nH]c1=O)Nn1c(-c2ccccc2)csc1=S  0.55 mm
6. Nn1c(S)nnc1Cc1nc2ccccc2[nH]c1=O  0.6 mm
7. O=c1[nH]c2ccccc2nc1Cc1nnc(S)o1  0.6 mm
8. Cc1ccc(-c2csc(=S)n2NC(=O)Cc2nc3ccccc3[nH]c2=O)cc1  0.6 mm

The compounds below were run on Rattus norvegicus (assay: Gastrointestinal toxicity in Rattus norvegicus albino (rat) assessed as ulcer index at 0.9 mg/100 g body weight, po qd). Details: in vivo.
Assay type: organism-based

In order of rising UI:
1. O=c1[nH]c2ccccc2nc1Cc1nnc(S)n1-c1ccccc1  0
2. Nn1c(S)nnc1Cc1nc2ccccc2[nH]c1=O  0
3. Cc1ccc(-c2cc(C(F)(F)F)nn2-c2ccc(S(N)(=O)=O)cc2)cc1 [CELECOXIB]  0
4. Cc1ccc(-c2csc(=S)n2NC(=O)Cc2nc3ccccc3[nH]c2=O)cc1  0
5. CCn1c(S)nnc1Cc1nc2ccccc2[nH]c1=O  0
6. O=C(Cc1nc2ccccc2[nH]c1=O)Nn1c(-c2ccc(Cl)cc2)csc1=S  0
7. O=C(Cc1nc2ccccc2[nH]c1=O)Nn1c(-c2ccccc2)csc1=S  240
8. O=c1[nH]c2ccccc2nc1Cc1nnc(S)o1  240
9. COc1ccc2c(c1)c(CC(=O)O)c(C)n2C(=O)c1ccc(Cl)cc1 [INDOMETHACIN]  500

Each compound was assayed on Rattus norvegicus (assay: Gastrointestinal toxicity in Rattus norvegicus albino (rat) assessed as incidence of gastric ulceration at 0.9 mg/100 g body weight, po qd). Details: in vivo.
Assay type: organism-based, Stomach

In order of falling Activity:
1. COc1ccc2c(c1)c(CC(=O)O)c(C)n2C(=O)c1ccc(Cl)cc1 [INDOMETHACIN]  100%
2. O=C(Cc1nc2ccccc2[nH]c1=O)Nn1c(-c2ccccc2)csc1=S  80%
3. O=c1[nH]c2ccccc2nc1Cc1nnc(S)o1  80%
4. O=c1[nH]c2ccccc2nc1Cc1nnc(S)n1-c1ccccc1  0%
5. Nn1c(S)nnc1Cc1nc2ccccc2[nH]c1=O  0%
6. Cc1ccc(-c2cc(C(F)(F)F)nn2-c2ccc(S(N)(=O)=O)cc2)cc1 [CELECOXIB]  0%
7. Cc1ccc(-c2csc(=S)n2NC(=O)Cc2nc3ccccc3[nH]c2=O)cc1  0%
8. CCn1c(S)nnc1Cc1nc2ccccc2[nH]c1=O  0%
9. O=C(Cc1nc2ccccc2[nH]c1=O)Nn1c(-c2ccc(Cl)cc2)csc1=S  0%

Each compound was assayed on Rattus norvegicus (assay: Anti-inflammatory activity in Rattus norvegicus albino (rat) assessed as reduction of carrageenan-induced paw edema thickness at 0.9 mg/100 g body weight, ip administered 1 hr before carrageenan-challenge measured after 1 hr (reference value: 0.77 +/- 0.02 mm)). Details: not given.
Assay type: functional

In order of falling Activity:
1. Cc1ccc(-c2csc(=S)n2NC(=O)Cc2nc3ccccc3[nH]c2=O)cc1  0.7 mm
2. Nn1c(S)nnc1Cc1nc2ccccc2[nH]c1=O  0.67 mm
3. O=C(Cc1nc2ccccc2[nH]c1=O)Nn1c(-c2ccccc2)csc1=S  0.57 mm
4. O=c1[nH]c2ccccc2nc1Cc1nnc(S)o1  0.57 mm
5. O=c1[nH]c2ccccc2nc1Cc1nnc(S)n1-c1ccccc1  0.55 mm
6. O=C(Cc1nc2ccccc2[nH]c1=O)Nn1c(-c2ccc(Cl)cc2)csc1=S  0.55 mm
7. CCn1c(S)nnc1Cc1nc2ccccc2[nH]c1=O  0.5 mm
8. Cc1ccc(-c2cc(C(F)(F)F)nn2-c2ccc(S(N)(=O)=O)cc2)cc1 [CELECOXIB]  0.45 mm

These compounds were tested on Staphylococcus aureus (assay: Antibacterial activity against Staphylococcus aureus at 10 mg/ml by cup-plate technique). Details: read-out: DIZ.
Assay type: functional

In order of falling zone of inhibition at 10000 µg/mL:
1. O=C(O)c1cn(C2CC2)c2cc(N3CCNCC3)c(F)cc2c1=O [CIPROFLOXACIN]  17 mm
2. O=C1NC2CCCCC2N=C1/C=N/Nc1ccc(F)cc1 (stereo not drawn)  16 mm
3. O=C1NC2CCCCC2N=C1/C=N/Nc1ccc(Cl)cc1 (stereo not drawn)  16 mm
4. O=C(CC1=NC2CCCCC2NC1=O)NNC(=S)Nc1ccccc1 (stereo not drawn)  16 mm
5. O=C1NC2CCCCC2N=C1/C=N/Nc1ccc(Br)cc1 (stereo not drawn)  13 mm
6. C=CCNC(=S)NNC(=O)CC1=NC2CCCCC2NC1=O (stereo not drawn)  12 mm
7. O=c1[nH]c2ccccc2nc1Cc1nnc(S)o1  11 mm
8. O=C(Cc1nc2ccccc2[nH]c1=O)NNC(=S)Nc1ccccc1  10 mm
9. C=CCNC(=S)NNC(=O)Cc1nc2ccccc2[nH]c1=O  9 mm
10. Cc1ccc(N/N=C/C2=NC3CCCCC3NC2=O)cc1 (stereo not drawn)  6 mm
11. O=C1NC2CCCCC2N=C1/C=N/Nc1ccccc1 (stereo not drawn)  6 mm

Each compound was assayed on Rattus norvegicus (assay: Anti-inflammatory activity in Rattus norvegicus albino (rat) assessed as reduction of carrageenan-induced paw edema thickness at 0.9 mg/100 g body weight, ip administered 1 hr before carrageenan-challenge measured after 2 hr (reference value: 0.88 +/- 0.03 mm)). Details: not given.
Assay type: functional

In order of falling Activity:
1. Cc1ccc(-c2csc(=S)n2NC(=O)Cc2nc3ccccc3[nH]c2=O)cc1  0.67 mm
2. Nn1c(S)nnc1Cc1nc2ccccc2[nH]c1=O  0.62 mm
3. O=c1[nH]c2ccccc2nc1Cc1nnc(S)n1-c1ccccc1  0.55 mm
4. O=C(Cc1nc2ccccc2[nH]c1=O)Nn1c(-c2ccccc2)csc1=S  0.55 mm
5. O=c1[nH]c2ccccc2nc1Cc1nnc(S)o1  0.52 mm
6. CCn1c(S)nnc1Cc1nc2ccccc2[nH]c1=O  0.5 mm
7. O=C(Cc1nc2ccccc2[nH]c1=O)Nn1c(-c2ccc(Cl)cc2)csc1=S  0.5 mm
8. Cc1ccc(-c2cc(C(F)(F)F)nn2-c2ccc(S(N)(=O)=O)cc2)cc1 [CELECOXIB]  0.42 mm

The compounds below were run on Rattus norvegicus (assay: Anti-inflammatory activity in Rattus norvegicus albino (rat) assessed as reduction of carrageenan-induced paw edema thickness at 0.9 mg/100 g body weight, ip administered 1 hr before carrageenan-challenge measured after 4 hr (reference value: 0.88 +/- 0.03 mm)). Details: not given.
Assay type: functional

In order of falling Activity:
1. CCn1c(S)nnc1Cc1nc2ccccc2[nH]c1=O  0.67 mm
2. Nn1c(S)nnc1Cc1nc2ccccc2[nH]c1=O  0.62 mm
3. Cc1ccc(-c2csc(=S)n2NC(=O)Cc2nc3ccccc3[nH]c2=O)cc1  0.55 mm
4. O=C(Cc1nc2ccccc2[nH]c1=O)Nn1c(-c2ccccc2)csc1=S  0.52 mm
5. O=c1[nH]c2ccccc2nc1Cc1nnc(S)o1  0.52 mm
6. Cc1ccc(-c2cc(C(F)(F)F)nn2-c2ccc(S(N)(=O)=O)cc2)cc1 [CELECOXIB]  0.5 mm
7. O=c1[nH]c2ccccc2nc1Cc1nnc(S)n1-c1ccccc1  0.47 mm
8. O=C(Cc1nc2ccccc2[nH]c1=O)Nn1c(-c2ccc(Cl)cc2)csc1=S  0.45 mm

These compounds were tested on Bacillus subtilis (assay: Antibacterial activity against Bacillus subtilis at 10 mg/ml by cup-plate technique). Details: read-out: DIZ.
Assay type: functional

In order of falling zone of inhibition at 10000 µg/mL:
1. O=C(O)c1cn(C2CC2)c2cc(N3CCNCC3)c(F)cc2c1=O [CIPROFLOXACIN]  19 mm
2. O=C(CC1=NC2CCCCC2NC1=O)NNC(=S)Nc1ccccc1 (stereo not drawn)  18 mm
3. O=C1NC2CCCCC2N=C1/C=N/Nc1ccc(F)cc1 (stereo not drawn)  17 mm
4. O=C1NC2CCCCC2N=C1/C=N/Nc1ccc(Cl)cc1 (stereo not drawn)  15 mm
5. O=C1NC2CCCCC2N=C1/C=N/Nc1ccc(Br)cc1 (stereo not drawn)  11 mm
6. C=CCNC(=S)NNC(=O)CC1=NC2CCCCC2NC1=O (stereo not drawn)  11 mm
7. O=c1[nH]c2ccccc2nc1Cc1nnc(S)o1  10 mm
8. O=C(Cc1nc2ccccc2[nH]c1=O)NNC(=S)Nc1ccccc1  9 mm
9. C=CCNC(=S)NNC(=O)Cc1nc2ccccc2[nH]c1=O  8 mm
10. O=C1NC2CCCCC2N=C1/C=N/Nc1ccccc1 (stereo not drawn)  8 mm
11. Cc1ccc(N/N=C/C2=NC3CCCCC3NC2=O)cc1 (stereo not drawn)  7 mm
